Assay results from article PMC12514245, “Impaired migration and lung invasion of human melanoma by a novel small molecule targeting the transmembrane domain of death receptor p75^NTR” (EMBO Molecular Medicine, 2025).
“And” between values parts separate entries of the source, which are not always exact repeats. Identical values can stand only once.

Tested on: A875 NT cells
Experiment: Wound healing cell motility assay, A875 NT
Assay type: cell-based, human
Details: for Wound area, Mean: N=3; for Wound area (Fold), Mean / Wound area (Fold), individual replicates: 10uM; for Wound area (Fold): A875 NT
Description: For wound healing assay, cells were grown until confluency and subjected to a wound across the cell mono-layer. Cells were then incubated with serum-free media either with DMSO or a small molecule (with or without 5 µM Q_VD_poH) and imaged at specific time-points. Cell migration is reflected as fold change in wound area over time.

[1] = 5μM Q_VD_poH + 10μM Div17E5, 0 hours
[2] = 5μM Q_VD_poH + 10μM Div17E5, 3 hours
[3] = 5μM Q_VD_poH + 10μM Div17E5, 6 hours
[4] = 5μM Q_VD_poH + 10μM Div17E5, 9 hours
[5] = 5μM Q_VD_poH + 10μM Div17E5, 12 hours
[6] = 5μM Q_VD_poH + 10μM Div17E5, 15 hours
[7] = 5μM Q_VD_poH + 10μM Div17E5, 18 hours
[8] = 5μM Q_VD_poH + 10μM Div17E5, 21 hours
[9] = 5μM Q_VD_poH + 10μM Div17E5, 24 hours

For `Oc1ccc(-c2cncc(Nc3ccc(Br)c(Cl)c3)n2)cc1` [Div17E5], the “cell motility (wound healing)” value was “significantly impaired motility”, the “Wound area, n1-n3” value [1] was 1.151 Fold and 0.989 Fold and 0.859 Fold and the “Wound area, Mean” value [1] was 1.000 Fold. For the same compound, the “Wound area, n1-n3” value [2] was 0.948 Fold and 1.003 Fold and 1.022 Fold, the “Wound area, Mean” value [2] was 0.991 Fold and the “Wound area, n1-n3” value [3] was 0.944 Fold and 0.988 Fold and 1.047 Fold. The “Wound area, Mean” value [3] was 0.993 Fold, the “Wound area, n1-n3” value [4] was 0.936 Fold and 0.934 Fold and 1.001 Fold and the “Wound area, Mean” value [4] was 0.957 Fold. The “Wound area, n1-n3” value [5] was 0.937 Fold and 0.894 Fold and 1.002 Fold, the “Wound area, Mean” value [5] was 0.944 Fold and the “Wound area, n1-n3” value [6] was 0.938 Fold and 0.874 Fold and 0.985 Fold. The “Wound area, Mean” value [6] was 0.932 Fold, the “Wound area, n1-n3” value [7] was 0.920 Fold and 0.852 Fold and 0.976 Fold and the “Wound area, Mean” value [7] was 0.916 Fold. The “Wound area, n1-n3” value [8] was 0.922 Fold and 0.829 Fold and 0.962 Fold, the “Wound area, Mean” value [8] was 0.904 Fold and the “Wound area, n1-n3” value [9] was 0.916 Fold and 0.831 Fold and 0.939 Fold. For the same compound, the “Wound area, Mean” value [9] was 0.895 Fold, the “wound healing assay, comparison of Div17E5, MS_18 and MS_63” value (10 µM) was “the better of the three” and the “Wound area, Mean” value (10μM Div17E5, 0 hours) was 1.000 Fold. For the same compound, the “Wound area, n1-n3” value (10μM Div17E5, 3 hours) was 1.026 Fold and 0.986 Fold and 1.104 Fold, the “Wound area, Mean” value (10μM Div17E5, 3 hours) was 1.039 Fold and the “Wound area, n1-n3” value (10μM Div17E5, 6 hours) was 0.988 Fold and 0.956 Fold and 1.073 Fold. The “Wound area, Mean” value (10μM Div17E5, 6 hours) was 1.006 Fold, the “Wound area, n1-n3” value (10μM Div17E5, 9 hours) was 0.922 Fold and 0.923 Fold and 1.017 Fold and the “Wound area, Mean” value (10μM Div17E5, 9 hours) was 0.954 Fold. The “Wound area, n1-n3” value (10μM Div17E5, 12 hours) was 0.909 Fold and 0.918 Fold and 0.979 Fold, the “Wound area, Mean” value (10μM Div17E5, 12 hours) was 0.935 Fold and the “Wound area, n1-n3” value (10μM Div17E5, 15 hours) was 0.913 Fold and 0.881 Fold and 0.951 Fold. For the same compound, the “Wound area, Mean” value (10μM Div17E5, 15 hours) was 0.915 Fold, the “Wound area, n1-n3” value (10μM Div17E5, 18 hours) was 0.881 Fold and 0.866 Fold and 0.915 Fold and the “Wound area, Mean” value (10μM Div17E5, 18 hours) was 0.887 Fold. For the same compound, the “Wound area, n1-n3” value (10μM Div17E5, 21 hours) was 0.886 Fold and 0.863 Fold and 0.915 Fold, the “Wound area, Mean” value (10μM Div17E5, 21 hours) was 0.888 Fold and the “Wound area, n1-n3” value (10μM Div17E5, 24 hours) was 0.865 Fold and 0.854 Fold and 0.889 Fold. The “Wound area, Mean” value (10μM Div17E5, 24 hours) was 0.870 Fold, the “Wound area (Fold), Mean” value (0 hours) was 1 Fold and the “Wound area (Fold), individual replicates” value (0 hours) was 1.000 Fold. The “Wound area (Fold), Mean” value (3 hours) was 0.931 Fold, the “Wound area (Fold), individual replicates” value (3 hours) was 0.928 Fold and 0.933 Fold and the “Wound area (Fold), Mean” value (6 hours) was 0.912 Fold. For the same compound, the “Wound area (Fold), individual replicates” value (6 hours) was 0.898 Fold and 0.926 Fold, the “Wound area (Fold), Mean” value (9 hours) was 0.866 Fold and the “Wound area (Fold), individual replicates” value (9 hours) was 0.856 Fold and 0.878 Fold. For the same compound, the “Wound area (Fold), Mean” value (12 hours) was 0.895 Fold, the “Wound area (Fold), individual replicates” value (12 hours) was 0.846 Fold and 0.944 Fold and the “Wound area (Fold), Mean” value (15 hours) was 0.862 Fold. The “Wound area (Fold), individual replicates” value (15 hours) was 0.814 Fold and 0.91 Fold, the “Wound area (Fold), Mean” value (18 hours) was 0.863 Fold and the “Wound area (Fold), individual replicates” value (18 hours) was 0.826 Fold and 0.899 Fold. For the same compound, the “Wound area (Fold), Mean” value (21 hours) was 0.869 Fold, the “Wound area (Fold), individual replicates” value (21 hours) was 0.805 Fold and 0.934 Fold and the “Wound area (Fold), Mean” value (24 hours) was 0.869 Fold. For the same compound, the “Wound area (Fold), individual replicates” value (24 hours) was 0.812 Fold and 0.927 Fold, the “Wound area (Fold)” value (1uM, 0 h, Mean) was 1.000 Fold and the “Wound area (Fold)” value (1uM, 0 h, n1) was 1.026 Fold. For the same compound, the “Wound area (Fold)” value (1uM, 0 h, n2) was 0.960 Fold, the “Wound area (Fold)” value (1uM, 0 h, n3) was 1.014 Fold and the “Wound area (Fold)” value (1uM, 3 h, Mean) was 0.953 Fold. For the same compound, the “Wound area (Fold)” value (1uM, 3 h, n1) was 0.950 Fold, the “Wound area (Fold)” value (1uM, 3 h, n2) was 0.945 Fold and the “Wound area (Fold)” value (1uM, 3 h, n3) was 0.963 Fold. For the same compound, the “Wound area (Fold)” value (1uM, 6 h, Mean) was 0.896 Fold, the “Wound area (Fold)” value (1uM, 6 h, n1) was 0.897 Fold and the “Wound area (Fold)” value (1uM, 6 h, n2) was 0.884 Fold. For the same compound, the “Wound area (Fold)” value (1uM, 6 h, n3) was 0.907 Fold, the “Wound area (Fold)” value (1uM, 9 h, Mean) was 0.858 Fold and the “Wound area (Fold)” value (1uM, 9 h, n1) was 0.855 Fold. The “Wound area (Fold)” value (1uM, 9 h, n2) was 0.847 Fold, the “Wound area (Fold)” value (1uM, 9 h, n3) was 0.872 Fold and the “Wound area (Fold)” value (1uM, 12 h, Mean) was 0.818 Fold. The “Wound area (Fold)” value (1uM, 12 h, n1) was 0.819 Fold, the “Wound area (Fold)” value (1uM, 12 h, n2) was 0.796 Fold and the “Wound area (Fold)” value (1uM, 12 h, n3) was 0.839 Fold. The “Wound area (Fold)” value (1uM, 15 h, Mean) was 0.788 Fold, the “Wound area (Fold)” value (1uM, 15 h, n1) was 0.792 Fold and the “Wound area (Fold)” value (1uM, 15 h, n2) was 0.758 Fold. For the same compound, the “Wound area (Fold)” value (1uM, 15 h, n3) was 0.814 Fold, the “Wound area (Fold)” value (1uM, 18 h, Mean) was 0.765 Fold and the “Wound area (Fold)” value (1uM, 18 h, n1) was 0.775 Fold. The “Wound area (Fold)” value (1uM, 18 h, n2) was 0.730 Fold, the “Wound area (Fold)” value (1uM, 18 h, n3) was 0.790 Fold and the “Wound area (Fold)” value (1uM, 21 h, Mean) was 0.730 Fold. The “Wound area (Fold)” value (1uM, 21 h, n1) was 0.735 Fold, the “Wound area (Fold)” value (1uM, 21 h, n2) was 0.696 Fold and the “Wound area (Fold)” value (1uM, 21 h, n3) was 0.758 Fold. The “Wound area (Fold)” value (1uM, 24 h, Mean) was 0.705 Fold, the “Wound area (Fold)” value (1uM, 24 h, n1) was 0.708 Fold and the “Wound area (Fold)” value (1uM, 24 h, n2) was 0.669 Fold. For the same compound, the “Wound area (Fold)” value (1uM, 24 h, n3) was 0.737 Fold, the “Wound area (Fold)” value (2uM, 0 h, Mean) was 1.000 Fold and the “Wound area (Fold)” value (2uM, 0 h, n1) was 0.9445 Fold. For the same compound, the “Wound area (Fold)” value (2uM, 0 h, n2) was 1.024 Fold, the “Wound area (Fold)” value (2uM, 0 h, n3) was 1.031 Fold and the “Wound area (Fold)” value (2uM, 3 h, Mean) was 0.936 Fold. The “Wound area (Fold)” value (2uM, 3 h, n1) was 0.9336 Fold, the “Wound area (Fold)” value (2uM, 3 h, n2) was 0.9313 Fold and the “Wound area (Fold)” value (2uM, 3 h, n3) was 0.9444 Fold. The “Wound area (Fold)” value (2uM, 6 h, Mean) was 0.874 Fold, the “Wound area (Fold)” value (2uM, 6 h, n1) was 0.8802 Fold and the “Wound area (Fold)” value (2uM, 6 h, n2) was 0.851 Fold. The “Wound area (Fold)” value (2uM, 6 h, n3) was 0.8894 Fold, the “Wound area (Fold)” value (2uM, 9 h, Mean) was 0.841 Fold and the “Wound area (Fold)” value (2uM, 9 h, n1) was 0.8687 Fold. The “Wound area (Fold)” value (2uM, 9 h, n2) was 0.7852 Fold, the “Wound area (Fold)” value (2uM, 9 h, n3) was 0.8693 Fold and the “Wound area (Fold)” value (2uM, 12 h, Mean) was 0.798 Fold. For the same compound, the “Wound area (Fold)” value (2uM, 12 h, n1) was 0.822 Fold, the “Wound area (Fold)” value (2uM, 12 h, n2) was 0.7423 Fold and the “Wound area (Fold)” value (2uM, 12 h, n3) was 0.8308 Fold. The “Wound area (Fold)” value (2uM, 15 h, Mean) was 0.764 Fold, the “Wound area (Fold)” value (2uM, 15 h, n1) was 0.7994 Fold and the “Wound area (Fold)” value (2uM, 15 h, n2) was 0.707 Fold. The “Wound area (Fold)” value (2uM, 15 h, n3) was 0.7869 Fold, the “Wound area (Fold)” value (2uM, 18 h, Mean) was 0.723 Fold and the “Wound area (Fold)” value (2uM, 18 h, n1) was 0.7549 Fold. For the same compound, the “Wound area (Fold)” value (2uM, 18 h, n2) was 0.6745 Fold, the “Wound area (Fold)” value (2uM, 18 h, n3) was 0.7404 Fold and the “Wound area (Fold)” value (2uM, 21 h, Mean) was 0.674 Fold. For the same compound, the “Wound area (Fold)” value (2uM, 21 h, n1) was 0.6977 Fold, the “Wound area (Fold)” value (2uM, 21 h, n2) was 0.6158 Fold and the “Wound area (Fold)” value (2uM, 21 h, n3) was 0.7086 Fold. The “Wound area (Fold)” value (2uM, 24 h, Mean) was 0.637 Fold, the “Wound area (Fold)” value (2uM, 24 h, n1) was 0.6671 Fold and the “Wound area (Fold)” value (2uM, 24 h, n2) was 0.5815 Fold. For the same compound, the “Wound area (Fold)” value (2uM, 24 h, n3) was 0.6623 Fold and the wound healing assay (low micromolar and submicromolar concentrations) was “totally inactive”.
